This note sets out measurements from ChEMBL document CHEMBL5360532, “Current scenario of quinolone hybrids with potential antibacterial activity against ESKAPE pathogens” (Eur J Med Chem, 2023).

One may read the MIC as the lowest concentration that inhibits growth of the organism.

≈ marks a conversion by molar mass, not a printed value.

What all share (assay type): functional
The subject of experiment [1] is Escherichia coli. The experiment is described as follows: Antibacterial activity against multi drug resistant Escherichia coli clinical isolate 94393 assessed as bacterial growth inhibition measured after 18 hrs by broth microdilution assay.
Experiment [2] deals with Pseudomonas aeruginosa. The experiment is described as follows: Antibacterial activity against clinical isolate multi drug resistant Pseudomonas aeruginosa PA264-104354 assessed as bacterial growth inhibition measured after 18 hrs by broth microdilution assay. Background: In broth dilution the organism is exposed to a series of concentrations in liquid medium.
For experiment [3], the system named is Escherichia coli. The experiment is described as follows: Antibacterial activity against multi drug resistant Escherichia coli clinical isolate 94474 assessed as bacterial growth inhibition measured after 18 hrs by broth microdilution assay.
The test system of experiment [4] is Acinetobacter baumannii. The experiment is described as follows: Antibacterial activity against clinical isolate multi drug resistant Acinetobacter baumannii LAC-4 assessed as bacterial growth inhibition measured after 18 hrs by broth microdilution assay.
For experiment [5], the system named is Pseudomonas aeruginosa. The experiment is described as follows: Antibacterial activity against clinical isolate multi drug resistant Pseudomonas aeruginosa PA262-101856 assessed as bacterial growth inhibition measured after 18 hrs by broth microdilution assay.
The test system of experiment [6] is Mycobacterium tuberculosis. The experiment is described as follows: Antimycobacterial activity against multidrug Mycobacterium tuberculosis assessed as bacterial growth inhibition by LJ slant assay.
Experiment [7] has as its system Klebsiella pneumoniae. The experiment is described as follows: Antibacterial activity against multi drug resistant Klebsiella pneumoniae clinical isolate 116381 assessed as bacterial growth inhibition measured after 18 hrs by broth microdilution assay.
Experiment [8] deals with Pseudomonas aeruginosa. The experiment is described as follows: Antibacterial activity against clinical isolate multi drug resistant Pseudomonas aeruginosa PA260-97103 assessed as bacterial growth inhibition measured after 18 hrs by broth microdilution assay.
Experiment [9] relates to Acinetobacter baumannii. The experiment is described as follows: Antibacterial activity against clinical isolate multi drug resistant Acinetobacter baumannii AB031 assessed as bacterial growth inhibition measured after 18 hrs by broth microdilution assay.
Experiment [10] deals with Acinetobacter baumannii. The experiment is described as follows: Antibacterial activity against clinical isolate multi drug resistant Acinetobacter baumannii AB027 assessed as bacterial growth inhibition measured after 18 hrs by broth microdilution assay.
In experiment [11] the test system is Enterobacter cloacae. The experiment is described as follows: Antibacterial activity against multi drug resistant Enterobacter cloacae clinical isolate 121187 assessed as bacterial growth inhibition measured after 18 hrs by broth microdilution assay.
In experiment [12] the test system is Escherichia coli. The experiment is described as follows: Antibacterial activity against multi drug resistant Escherichia coli clinical isolate 107115 assessed as bacterial growth inhibition measured after 18 hrs by broth microdilution assay.
Experiment [13] relates to Pseudomonas aeruginosa. The experiment is described as follows: Antibacterial activity against clinical isolate multi drug resistant Pseudomonas aeruginosa PA259-96918 assessed as bacterial growth inhibition measured after 18 hrs by broth microdilution assay.
Experiment [14] deals with Mycobacterium tuberculosis. The experiment is described as follows: Antimycobacterial activity against extensive drug Mycobacterium tuberculosis assessed as bacterial growth inhibition by LJ slant assay.
For experiment [15], the system named is Klebsiella pneumoniae. The experiment is described as follows: Antibacterial activity against multi drug resistant Klebsiella pneumoniae clinical isolate 113254 assessed as bacterial growth inhibition measured after 18 hrs by broth microdilution assay.
Experiment [16] relates to Pseudomonas aeruginosa. The experiment is described as follows: Antibacterial activity against multi drug resistant Pseudomonas aeruginosa clinical isolate 100036 assessed as bacterial growth inhibition measured after 18 hrs by broth microdilution assay.
Experiment [17] deals with Klebsiella pneumoniae. The experiment is described as follows: Antibacterial activity against multi drug resistant Klebsiella pneumoniae clinical isolate 113250 assessed as bacterial growth inhibition measured after 18 hrs by broth microdilution assay.
The subject of experiment [18] is Enterobacter cloacae. The experiment is described as follows: Antibacterial activity against multi drug resistant Enterobacter cloacae clinical isolate 117029 assessed as bacterial growth inhibition measured after 18 hrs by broth microdilution assay.
Experiment [19] relates to Enterobacter cloacae. The experiment is described as follows: Antibacterial activity against multi drug resistant Enterobacter cloacae clinical isolate 118564 assessed as bacterial growth inhibition measured after 18 hrs by broth microdilution assay.
Experiment [20] deals with Acinetobacter baumannii. The experiment is described as follows: Antibacterial activity against multi drug resistant Acinetobacter baumannii clinical isolate 92247 assessed as bacterial growth inhibition measured after 18 hrs by broth microdilution assay.
A further experiment concerns Enterococcus faecalis. The experiment is described as follows: Antibacterial activity Enterococcus faecalis assessed as bacterial growth inhibition measured after 24 hrs by broth microdilution assay.
The test system of experiment [21] is Pseudomonas aeruginosa. The experiment is described as follows: Antibacterial activity Pseudomonas aeruginosa assessed as bacterial growth inhibition measured after 24 hrs by broth microdilution assay.
The subject of experiment [22] is Staphylococcus aureus. The experiment is described as follows: Antibacterial activity Staphylococcus aureus assessed as bacterial growth inhibition measured after 24 hrs by broth microdilution assay.
The test system of experiment [23] is Escherichia coli. The experiment is described as follows: Antibacterial activity Escherichia coli assessed as bacterial growth inhibition measured after 24 hrs by broth microdilution assay.
Experiment [24] has as its system Staphylococcus aureus. The experiment is described as follows: Antibacterial activity Staphylococcus aureus ATCC 25923 assessed as bacterial growth inhibition by broth microdilution assay.
Experiment [25] has as its system Escherichia coli. The experiment is described as follows: Antibacterial activity Escherichia coli ATCC 25922 assessed as bacterial growth inhibition by broth microdilution assay.
Experiment [26] has as its system Pseudomonas aeruginosa. The experiment is described as follows: Antibacterial activity against Pseudomonas aeruginosa assessed as bacterial growth inhibition by two fold serial dilution assay.
Experiment [27] deals with Staphylococcus aureus. The experiment is described as follows: Antibacterial activity against methicillin resistant Staphylococcus aureus assessed as bacterial growth inhibition by two fold serial dilution assay.

Consider `NC[C@@H]1O[C@@H](O[C@@H]2[C@@H](OCCCCCCCN3CCN(c4cc5c(cc4F)c(=O)c(C(=O)O)cn5C4CC4)CC3)[C@H](O[C@@H]3O[C@@H](CO)[C@H](O)[C@@H](N)[C@@H]3O)[C@@H](N)C[C@H]2N)[C@@H](N)C[C@H]1O`, for which the MIC (in the experiment with Escherichia coli [1]; in the experiment on Pseudomonas aeruginosa [2]; in the experiment on Escherichia coli [3]; in the experiment with Acinetobacter baumannii [4]; in the experiment with Pseudomonas aeruginosa [5]; in experiment [6]) was ≥ 16 µg/mL in each case. For the same molecule, the MIC in the experiment on Klebsiella pneumoniae [7], in the experiment on Pseudomonas aeruginosa [8], in the experiment with Acinetobacter baumannii [9], in the experiment on Acinetobacter baumannii [10], in the experiment on Enterobacter cloacae [11] and in the experiment with Escherichia coli [12] was ≥ 16 µg/mL throughout. Also, the MIC (in the experiment with Pseudomonas aeruginosa [13]; in [14]; in the experiment on Klebsiella pneumoniae [15]; with Pseudomonas aeruginosa [16]; in the experiment on Klebsiella pneumoniae [17]; in the experiment on Enterobacter cloacae [18]) was ≥ 16 µg/mL throughout. Also, the MIC in the experiment on Enterobacter cloacae [19] and in the experiment with Acinetobacter baumannii [20] was ≥ 16 µg/mL in each case.

Regarding `C[C@H](NC(=O)c1cc(=O)[nH]c2ccccc12)C(=O)O`, the MIC in the experiment on Enterococcus faecalis, in the experiment on Pseudomonas aeruginosa [21], in the experiment with Staphylococcus aureus [22] and with Escherichia coli [23] was 620 µg/mL (≈ 2380 µM) throughout.

For the molecule `C[C@@H](NC(=O)C(Cl)Cl)C(=O)N1CCN(c2cc3c(cc2F)c(=O)c(C(=O)O)cn3C2CC2)CC1`, the values for the MIC in the experiment on Staphylococcus aureus [24] and with Escherichia coli [25] were 0.167 µg/mL (≈ 0.325 µM) and 0.082 µg/mL (≈ 0.16 µM), respectively.

Regarding `COc1c(N2CCN(C(=O)CN3CCN(CC(=O)O)CCN(CC(=O)O)CCN(CC(=O)O)CC3)C(C)C2)c(F)cc2c(=O)c(C(=O)O)cn(C3CC3)c12` (stereo not drawn), the MIC in the experiment on Pseudomonas aeruginosa [26] came to 3.12 µg/mL (≈ 4.1 µM); in the experiment with Staphylococcus aureus [27] it was 1.56 µg/mL (≈ 2.05 µM).
